From ChEMBL document CHEMBL3046125, “Design and synthesis of niflumic acid-based N-acylhydrazone derivatives as novel anti-inflammatory and analgesic agents” (2013) come the findings set out here.

Assay type in all cases: functional
The subject of experiment [1] is Rattus norvegicus. Briefly: Anti-inflammatory activity in Wistar Rattus norvegicus (rat) assessed as inhibition of carrageenan-induced paw edema at 10 mg/kg, ip measured after 2 hr. Conditions: route intraperitoneal.
Experiment [2] deals with Rattus norvegicus. Briefly: Anti-inflammatory activity in Wistar Rattus norvegicus (rat) assessed as inhibition of carrageenan-induced paw edema at 10 mg/kg, ip measured after 4 hr. Conditions: route intraperitoneal. On the technique in general: The carrageenan paw model is a standard test of acute inflammation.
The subject of experiment [3] is Rattus norvegicus. Briefly: Anti-inflammatory activity in Wistar Rattus norvegicus (rat) assessed as inhibition of carrageenan-induced paw edema at 10 mg/kg, ip measured after 3 hr. Conditions: route intraperitoneal.
Experiment [4] relates to Rattus norvegicus. Kind of experiment: Anti-inflammatory activity in Wistar Rattus norvegicus (rat) assessed as inhibition of carrageenan-induced paw edema at 10 mg/kg, ip measured after 1 hr. Conditions: route intraperitoneal.
Experiment [5] deals with Rattus norvegicus. Briefly: Anti-inflammatory activity in Wistar Rattus norvegicus (rat) assessed as inhibition of carrageenan-induced paw edema at 10 mg/kg, ip measured after 30 min. Conditions: 0.5 h, route intraperitoneal.
For another experiment, the system named is Mus musculus. Kind of experiment: Analgesic activity in NMRI Mus musculus (mouse) assessed as inhibition of acetic acid-induced abdominal writhing at 10 mg/kg administered 30 min prior to acetic acid injection. Conditions: Abdomen. On the technique in general: An intraperitoneal irritant provokes the stretching counted in writhing tests.

As to `O=C(N/N=C/c1cccc(F)c1)c1cccnc1Nc1cccc(C(F)(F)F)c1`, the inhibition in vivo – broadly, the relative decrease from the control value, in per cent – at 10 mg/kg with Rattus norvegicus [1] stood at 52.8%; in the experiment with Rattus norvegicus [2], 29.8%; with Rattus norvegicus [3] it was 37%; in the experiment on Rattus norvegicus [4] it was 51.5%; in the experiment on Rattus norvegicus [5], 58.2%.

Regarding `CNc1ncccc1C(=O)N/N=C/c1ccc(Cl)cc1`, the inhibition in vivo at 10 mg/kg in the experiment on Rattus norvegicus [1] turned out to be 54.1%; in the experiment on Rattus norvegicus [2], 18.2%; in the experiment with Rattus norvegicus [3] it was 22.4%; in the experiment with Rattus norvegicus [4], 54.7%; with Rattus norvegicus [5], 46.5%.

For the compound `O=C(N/N=C/c1ccc(F)cc1)c1cccnc1Nc1cccc(C(F)(F)F)c1`, the inhibition in vivo at 10 mg/kg in the experiment on Rattus norvegicus [1] was found to be 41.2%; with Rattus norvegicus [2], 36.5%; with Rattus norvegicus [3], 41.3%; in the experiment with Rattus norvegicus [4], 43.2%; with Rattus norvegicus [5], 33.9%.

With `O=C(N/N=C/c1ccccc1)c1cccnc1Nc1cccc(C(F)(F)F)c1`, the inhibition in vivo at 10 mg/kg in the experiment on Rattus norvegicus [1] turned out to be 36.8%; with Rattus norvegicus [2], 31%; with Mus musculus, 66.2%; in the experiment on Rattus norvegicus [3], 21.2%; in the experiment with Rattus norvegicus [4], 53.9%; in the experiment with Rattus norvegicus [5] it was 60.4%.

For the compound `COc1ccc(/C=N/NC(=O)c2cccnc2Nc2cccc(C(F)(F)F)c2)c(OC)c1`, the inhibition in vivo at 10 mg/kg in the experiment on Rattus norvegicus [1] came out at 44.7%; in the experiment with Rattus norvegicus [2], 19.8%; with Rattus norvegicus [3] it was 24.1%; with Rattus norvegicus [4], 55.7%; in the experiment with Rattus norvegicus [5], 37.8%.

Take `O=C(N/N=C/c1ccc(O)cc1)c1cccnc1Nc1cccc(C(F)(F)F)c1`: the inhibition in vivo at 10 mg/kg with Rattus norvegicus [1] was found to be 68%; in the experiment on Rattus norvegicus [2], 61.6%; in the experiment with Rattus norvegicus [3] it was 59.5%; with Rattus norvegicus [4], 70.5%; with Rattus norvegicus [5] it was 59.2%.

Turning to `CNc1ncccc1C(=O)N/N=C/c1ccncc1`, the inhibition in vivo at 10 mg/kg with Rattus norvegicus [1] came to 60.4%; in the experiment with Rattus norvegicus [2], 15.5%; in the experiment with Mus musculus, 90.6%; in the experiment with Rattus norvegicus [3], 55%; in the experiment with Rattus norvegicus [4], 80.4%; in the experiment with Rattus norvegicus [5], 63.2%.

With `COc1cc(/C=N/NC(=O)c2cccnc2Nc2cccc(C(F)(F)F)c2)cc(OC)c1OC`, the inhibition in vivo at 10 mg/kg was determined as 40.6% in the experiment on Rattus norvegicus [1]; 28.6% with Rattus norvegicus [2]; 28.5% in the experiment with Rattus norvegicus [3]; 54.4% with Rattus norvegicus [4]; 55.9% in the experiment with Rattus norvegicus [5].

For `CNc1ncccc1C(=O)N/N=C/c1cccc(Cl)c1`, the inhibition in vivo at 10 mg/kg turned out to be 61.7% in the experiment with Rattus norvegicus [1]; 40.4% in the experiment with Rattus norvegicus [2]; 39.5% with Rattus norvegicus [3]; 68.6% in the experiment on Rattus norvegicus [4]; 67.1% in the experiment on Rattus norvegicus [5].

Take `CNc1ncccc1C(=O)N/N=C/c1cccc(OC)c1`: the inhibition in vivo at 10 mg/kg with Rattus norvegicus [1] amounted to 51.5%; with Rattus norvegicus [2], 42.2%; in the experiment on Rattus norvegicus [3], 49.5%; with Rattus norvegicus [4] it was 64.6%; in the experiment with Rattus norvegicus [5] it was 56.1%.

Turning to `COc1ccc(/C=N/NC(=O)c2cccnc2Nc2cccc(C(F)(F)F)c2)cc1OC`, the inhibition in vivo at 10 mg/kg came to 49% in the experiment with Rattus norvegicus [1]; 52.9% in the experiment on Rattus norvegicus [2]; 80.7% in the experiment with Mus musculus; 44% in the experiment with Rattus norvegicus [3]; 70% in the experiment with Rattus norvegicus [4]; 60.1% in the experiment with Rattus norvegicus [5].

As to `O=C(O)c1cccnc1Nc1cccc(C(F)(F)F)c1` [NIFLUMIC ACID], the inhibition in vivo at 10 mg/kg in the experiment with Rattus norvegicus [1] amounted to 70.1%; in the experiment with Rattus norvegicus [2], 52%; with Mus musculus it was 68.3%; in the experiment on Rattus norvegicus [3] it was 70.6%; in the experiment with Rattus norvegicus [4] it was 70.4%; in the experiment on Rattus norvegicus [5], 64.1%.

As for `O=C(N/N=C/c1ccc(O)c(O)c1)c1cccnc1Nc1cccc(C(F)(F)F)c1`, the inhibition in vivo at 10 mg/kg with Rattus norvegicus [1] was found to be 46.9%; in the experiment on Rattus norvegicus [2], 21.1%; with Rattus norvegicus [3] it was 38.2%; with Rattus norvegicus [4] it was 50.8%; with Rattus norvegicus [5] it was 51.4%.

Regarding `CNc1ncccc1C(=O)N/N=C/c1cccnc1`, the inhibition in vivo at 10 mg/kg in the experiment on Rattus norvegicus [1] turned out to be 43.7%; in the experiment on Rattus norvegicus [2], 13.8%; in the experiment on Rattus norvegicus [3] it was 27.7%; with Rattus norvegicus [4], 61.1%; with Rattus norvegicus [5], 66.3%.

For `O=C(N/N=C/c1ccc(Cl)cc1)c1cccnc1Nc1cccc(C(F)(F)F)c1`, the inhibition in vivo at 10 mg/kg with Rattus norvegicus [1] amounted to 52.8%; in the experiment on Rattus norvegicus [2], 43.7%; in the experiment on Rattus norvegicus [3] it was 48.5%; in the experiment with Rattus norvegicus [4], 67.2%; in the experiment with Rattus norvegicus [5], 52.4%.

On to `O=C(N/N=C/c1cccc(O)c1)c1cccnc1Nc1cccc(C(F)(F)F)c1`, for which the inhibition in vivo at 10 mg/kg in the experiment on Rattus norvegicus [1] was 65.4%; in the experiment on Rattus norvegicus [2] it was 35.8%; in the experiment with Rattus norvegicus [3], 49%; in the experiment with Rattus norvegicus [4], 63.8%; with Rattus norvegicus [5], 67.5%.

Turning to `O=C(N/N=C/c1cccnc1)c1cccnc1Nc1cccc(C(F)(F)F)c1`, the inhibition in vivo at 10 mg/kg with Rattus norvegicus [1] is 62.4%; in the experiment with Rattus norvegicus [2] it was 36%; in the experiment on Mus musculus, 51.4%; in the experiment with Rattus norvegicus [3] it was 52.4%; in the experiment on Rattus norvegicus [4], 76.1%; with Rattus norvegicus [5], 59.1%.

As to `CNc1ncccc1C(=O)N/N=C/c1ccccc1`, the inhibition in vivo at 10 mg/kg in the experiment with Rattus norvegicus [1] came out at 47.2%; in the experiment on Rattus norvegicus [2], 14.8%; in the experiment with Rattus norvegicus [3] it was 22.7%; in the experiment with Rattus norvegicus [4], 67.6%; in the experiment with Rattus norvegicus [5], 56.5%.

With `O=C(N/N=C/c1cccc(Cl)c1)c1cccnc1Nc1cccc(C(F)(F)F)c1`, the inhibition in vivo at 10 mg/kg is 63.5% with Rattus norvegicus [1]; 40.4% with Rattus norvegicus [2]; 61.9% in the experiment with Mus musculus; 55.2% in the experiment on Rattus norvegicus [3]; 76.7% with Rattus norvegicus [4]; 77.8% in the experiment on Rattus norvegicus [5].

Turning to `O=C(N/N=C/c1ccncc1)c1cccnc1Nc1cccc(C(F)(F)F)c1`, the inhibition in vivo at 10 mg/kg with Rattus norvegicus [1] was determined as 65.2%; with Rattus norvegicus [2], 45.9%; in the experiment with Mus musculus it was 85.6%; with Rattus norvegicus [3], 54.9%; in the experiment on Rattus norvegicus [4], 70.2%; in the experiment on Rattus norvegicus [5], 68.1%.

For `CN(C)c1ccc(/C=N/NC(=O)c2cccnc2Nc2cccc(C(F)(F)F)c2)cc1`, the inhibition in vivo at 10 mg/kg in the experiment with Rattus norvegicus [1] stood at 51.4%; in the experiment on Rattus norvegicus [2], 28.2%; with Rattus norvegicus [3] it was 39.5%; in the experiment with Rattus norvegicus [4] it was 63.5%; in the experiment on Rattus norvegicus [5] it was 61.3%.

On to `COc1cccc(/C=N/NC(=O)c2cccnc2Nc2cccc(C(F)(F)F)c2)c1`, for which the inhibition in vivo at 10 mg/kg came to 49.7% in the experiment with Rattus norvegicus [1]; 14.9% in the experiment with Rattus norvegicus [2]; 30.3% in the experiment with Rattus norvegicus [3]; 58.8% in the experiment on Rattus norvegicus [4]; 52.8% in the experiment on Rattus norvegicus [5].

On to `COc1ccc(/C=N/NC(=O)c2cccnc2Nc2cccc(C(F)(F)F)c2)cc1`, for which the inhibition in vivo at 10 mg/kg was determined as 42.4% with Rattus norvegicus [1]; 14% in the experiment on Rattus norvegicus [2]; 97.4% in the experiment on Mus musculus; 26.5% in the experiment with Rattus norvegicus [3]; 59.4% in the experiment with Rattus norvegicus [4]; 50.4% in the experiment on Rattus norvegicus [5].
